# According to patent US8796289B2 (AbbVie Inc., priority 2011, dated 2014):
# Molecular target: GST-tagged-Wee1 kinase (Homo sapiens, UniProt P30291)
# Assay: Wee1 time-resolved fluorescence equilibrium binding assay (displacement of Oregon Green-labeled ATP-competitive kinase probe)
# Conditions: not given
# Description: Wee1 kinase was assayed using a time-resolved fluorescence equilibrium binding assay monitoring displacement of a rapidly reversible Oregon Green-labeled ATP-competitive kinase probe (N-(2-(2-(2-(4-(4-(5-chloro-4-(2-(1-hydroxycyclobutyl)thiazol-5-yl)-1H-pyrrolo[2,3-b]pyridin-2-yl)phenyl)piperazin-1-yl)ethoxy)ethoxy)ethyl)-2′,7′-difluoro-3′,6′-dihydroxy-3-oxo-3H-spiro[isobenzofuran-1,9′-xanthene]-5-carboxamide) by competitive Wee1 inhibitors.
# GST-tagged-Wee1 kinase, sequence (P30291 whole entry): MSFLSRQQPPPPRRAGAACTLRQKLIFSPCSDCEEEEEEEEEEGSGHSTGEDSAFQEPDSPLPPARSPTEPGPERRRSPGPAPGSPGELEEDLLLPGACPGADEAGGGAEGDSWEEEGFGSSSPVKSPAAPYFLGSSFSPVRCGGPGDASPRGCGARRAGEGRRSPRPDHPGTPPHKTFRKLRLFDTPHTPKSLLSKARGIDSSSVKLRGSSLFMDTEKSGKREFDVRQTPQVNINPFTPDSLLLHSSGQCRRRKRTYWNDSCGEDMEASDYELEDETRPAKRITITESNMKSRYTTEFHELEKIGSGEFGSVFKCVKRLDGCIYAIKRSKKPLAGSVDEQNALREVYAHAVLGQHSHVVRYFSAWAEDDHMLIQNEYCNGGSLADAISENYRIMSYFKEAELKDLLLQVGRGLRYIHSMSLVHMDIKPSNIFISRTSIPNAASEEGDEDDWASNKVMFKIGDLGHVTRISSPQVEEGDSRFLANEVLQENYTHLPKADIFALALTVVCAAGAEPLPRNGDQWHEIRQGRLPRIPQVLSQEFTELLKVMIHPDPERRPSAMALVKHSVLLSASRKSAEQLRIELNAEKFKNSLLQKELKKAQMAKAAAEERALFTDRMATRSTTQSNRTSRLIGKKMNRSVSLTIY
row,Ki [nM],SMILES
1,2.4,"CN1CCN(c2ccc(Nc3ncc4c(=O)n(-c5c(Cl)cncc5Cl)nc(-c5cncs5)c4n3)cc2)CC1 [Example 360, 6-(3,5-dichloropyridin-4-yl)-2-{[4-(4-methylpiperazin-1-yl)phenyl]amino}-8-(1,3-thiazol-5-yl)pyrimido[4,5-d]pyridazin-5(6H)-one]"
2,4.4,"CN1CCN(c2ccc(Nc3ncc4c(=O)n(-c5c(Cl)cncc5Cl)nc(-c5cn(C)cn5)c4n3)cc2)CC1 [Example 361, 6-(3,5-dichloropyridin-4-yl)-8-(1-methyl-1H-imidazol-4-yl)-2-{[4-(4-methylpiperazin-1-yl)phenyl]amino}pyrimido[4,5-d]pyridazin-5(6H)-one]"
3,2.9,"Cc1nn(-c2ncccc2Cl)c(=O)c2cnc(Nc3ccc4c(c3)CN(C)CC4(C)C)nc12 [Example 365, 6-(3-chloropyridin-2-yl)-8-methyl-2-[(2,4,4-trimethyl-1,2,3,4-tetrahydroisoquinolin-7-yl)amino]pyrimido[4,5-d]pyridazin-5(6H)-one]"
4,0.53,"Cc1nn(-c2c(F)cccc2Cl)c(=O)c2cnc(Nc3ccc4c(c3)CC(N(C)C)C4)nc12 (stereo not drawn) [Example 366, 6-(2-chloro-6-fluorophenyl)-2-{[2-(dimethylamino)-2,3-dihydro-1H-inden-5-yl]amino}-8-methylpyrimido[4,5-d]pyridazin-5(6H)-one]"
5,0.54,"Cc1cc(Nc2ncc3c(=O)n(-c4c(F)cccc4Cl)nc(C)c3n2)ccc1N1CCCN(C)CC1 [Example 368, 6-(2-chloro-6-fluorophenyl)-8-methyl-2-(3-methyl-4-(4-methyl-1,4-diazepan-1-yl)phenylamino)pyrimido[4,5-d]pyridazin-5(6H)-one]"

# More lines, now with the values behind:
row,SMILES,Ki [nM]
1,"CN1CCN(c2ccc(Nc3ncc4c(=O)n(-c5c(Cl)cncc5Cl)nc(-c5ccccn5)c4n3)cc2)CC1 [Example 362, 6-(3,5-dichloropyridin-4-yl)-2-{[4-(4-methylpiperazin-1-yl)phenyl]amino}-8-(pyridin-2-yl)pyrimido[4,5-d]pyridazin-5(6H)-one]",1.8
2,"COc1cc(N2CCC(N3CCN(C)CC3)CC2)ccc1Nc1ncc2c(=O)n(-c3c(Cl)cccc3Cl)nc(C)c2n1 [Example 363, 6-(2,6-dichlorophenyl)-2-({2-methoxy-4-[4-(4-methylpiperazin-1-yl)piperidin-1-yl]phenyl}amino)-8-methylpyrimido[4,5-d]pyridazin-5(6H)-one]",40
3,"Cc1nn(-c2c(Cl)cccc2Cl)c(=O)c2cnc(Nc3ccc4c(c3)CN(C)CC4(C)C)nc12 [Example 364, 6-(2,6-dichlorophenyl)-8-methyl-2-[(2,4,4-trimethyl-1,2,3,4-tetrahydroisoquinolin-7-yl)amino]pyrimido[4,5-d]pyridazin-5(6H)-one]",0.61
4,"Cc1nn(-c2ncccc2Cl)c(=O)c2cnc(Nc3ccc4c(c3)CC(N(C)C)C4)nc12 (stereo not drawn) [Example 367, 6-(3-chloropyridin-2-yl)-2-{[2-(dimethylamino)-2,3-dihydro-1H-inden-5-yl]amino}-8-methylpyrimido[4,5-d]pyridazin-5(6H)-one]",3.7
5,"Cc1cc(Nc2ncc3c(=O)n(-c4ncccc4Cl)nc(C)c3n2)ccc1N1CCCN(C)CC1 [Example 369, 6-(3-chloropyridin-2-yl)-8-methyl-2-(3-methyl-4-(4-methyl-1,4-diazepan-1-yl)phenylamino)pyridazino[4,5-d]pyrimidin-5(6H)-one]",1.8
6,"Cc1nn(-c2c(Cl)cccc2Cl)c(=O)c2cnc(Nc3ccc4c(c3)CN(CC(F)(F)F)CC4(C)C)nc12 [Example 370, 6-(2,6-dichlorophenyl)-2-{[4,4-dimethyl-2-(2,2,2-trifluoroethyl)-1,2,3,4-tetrahydroisoquinolin-7-yl]amino}-8-methylpyrimido[4,5-d]pyridazin-5(6H)-one]",35

# Same assay, conditions: read-out: Wee-1 inhibition Ki
row,Ki [nM],SMILES
1,0.2,Cc1nn(-c2c(Cl)cccc2Cl)c(=O)c2cnc(Nc3ccc4c(c3)CNCC4)nc12 [Example 371]
